Measured values taken from ChEMBL document CHEMBL1143301, “Novel HDAC6 isoform selective chiral small molecule histone deacetylase inhibitors” (Bioorg Med Chem Lett, 2009).
Activity calls are given as the source filed them. The calls are words filed in the database; no cut-off is given here.

Experiments:
T-24 [1] = experiment: Induction of histone H3 acetylation in human T24 cells; type: functional, cell-based
Homo sapiens [2] = species: Homo sapiens; experiment: Selectivity ratio of IC50 for human recombinant histone deacetylase 2 to IC50 for human recombinant histone deacetylase 6
T-24 [3] = experiment: Selectivity ratio of EC50 for histone H3 acetylation to EC50 for alpha-tubulin acetylation in human T24 cells
[4] = biological target: T1, Protein deacetylase HDAC6 (Homo sapiens, UniProt Q9UBN7)
T1 sequence (Q9UBN7 whole entry): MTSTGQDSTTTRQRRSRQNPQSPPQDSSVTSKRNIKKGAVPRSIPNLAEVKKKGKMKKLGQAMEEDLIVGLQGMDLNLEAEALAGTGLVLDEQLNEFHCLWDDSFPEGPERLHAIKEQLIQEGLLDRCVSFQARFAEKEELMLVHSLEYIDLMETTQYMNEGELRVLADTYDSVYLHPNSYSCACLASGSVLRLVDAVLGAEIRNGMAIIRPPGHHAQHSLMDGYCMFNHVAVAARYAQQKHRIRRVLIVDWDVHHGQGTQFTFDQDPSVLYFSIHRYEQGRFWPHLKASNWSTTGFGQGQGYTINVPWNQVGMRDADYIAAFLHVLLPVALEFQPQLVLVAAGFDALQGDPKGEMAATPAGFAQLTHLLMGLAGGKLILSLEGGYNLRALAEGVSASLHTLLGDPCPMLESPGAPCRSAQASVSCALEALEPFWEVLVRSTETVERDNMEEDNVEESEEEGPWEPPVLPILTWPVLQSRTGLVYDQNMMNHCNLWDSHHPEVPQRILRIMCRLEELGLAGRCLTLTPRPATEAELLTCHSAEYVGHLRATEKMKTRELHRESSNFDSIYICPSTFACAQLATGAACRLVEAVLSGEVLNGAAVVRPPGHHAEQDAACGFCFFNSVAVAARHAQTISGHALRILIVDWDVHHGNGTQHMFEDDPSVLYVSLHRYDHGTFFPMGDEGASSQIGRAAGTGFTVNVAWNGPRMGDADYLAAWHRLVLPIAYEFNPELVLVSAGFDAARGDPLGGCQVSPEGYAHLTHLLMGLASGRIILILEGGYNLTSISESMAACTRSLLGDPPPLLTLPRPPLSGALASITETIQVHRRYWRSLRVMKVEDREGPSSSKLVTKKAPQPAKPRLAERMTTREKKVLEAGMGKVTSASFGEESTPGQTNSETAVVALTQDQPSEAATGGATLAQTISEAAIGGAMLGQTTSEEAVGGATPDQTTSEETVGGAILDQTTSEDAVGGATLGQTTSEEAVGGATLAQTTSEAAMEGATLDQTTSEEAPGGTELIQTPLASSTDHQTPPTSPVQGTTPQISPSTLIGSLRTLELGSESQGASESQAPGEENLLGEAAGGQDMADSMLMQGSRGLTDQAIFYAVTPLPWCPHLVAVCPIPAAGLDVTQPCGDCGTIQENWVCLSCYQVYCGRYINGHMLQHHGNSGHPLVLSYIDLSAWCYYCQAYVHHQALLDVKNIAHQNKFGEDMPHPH
Description: Inhibition of human recombinant histone deacetylase 6

Histone deacetylase 8 = biological target: T2, Histone deacetylase 8 (Homo sapiens, UniProt Q9BY41); experiment: Inhibition of human recombinant histone deacetylase 8
T2 sequence (Q9BY41 whole entry): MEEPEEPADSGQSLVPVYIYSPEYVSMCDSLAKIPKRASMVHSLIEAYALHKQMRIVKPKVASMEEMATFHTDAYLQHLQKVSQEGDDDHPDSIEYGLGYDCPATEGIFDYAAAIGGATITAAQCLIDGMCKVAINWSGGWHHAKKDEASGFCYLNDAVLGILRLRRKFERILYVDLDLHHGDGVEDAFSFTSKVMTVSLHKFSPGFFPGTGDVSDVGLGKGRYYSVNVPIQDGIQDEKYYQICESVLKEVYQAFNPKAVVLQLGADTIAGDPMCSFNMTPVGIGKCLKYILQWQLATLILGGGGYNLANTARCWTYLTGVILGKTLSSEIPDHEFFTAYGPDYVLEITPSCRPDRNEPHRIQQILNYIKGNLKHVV

Homo sapiens [5] = species: Homo sapiens; experiment: Selectivity ratio of IC50 for human recombinant histone deacetylase 8 to IC50 for human recombinant histone deacetylase 6
T-24 [6] = experiment: Induction of alpha tubulin acetylation in human T24 cells; type: functional, cell-based
Histone deacetylase 2 = Histone deacetylase 2 (Homo sapiens, UniProt Q92769)
Sequence of Histone deacetylase 2 (Q92769 whole entry): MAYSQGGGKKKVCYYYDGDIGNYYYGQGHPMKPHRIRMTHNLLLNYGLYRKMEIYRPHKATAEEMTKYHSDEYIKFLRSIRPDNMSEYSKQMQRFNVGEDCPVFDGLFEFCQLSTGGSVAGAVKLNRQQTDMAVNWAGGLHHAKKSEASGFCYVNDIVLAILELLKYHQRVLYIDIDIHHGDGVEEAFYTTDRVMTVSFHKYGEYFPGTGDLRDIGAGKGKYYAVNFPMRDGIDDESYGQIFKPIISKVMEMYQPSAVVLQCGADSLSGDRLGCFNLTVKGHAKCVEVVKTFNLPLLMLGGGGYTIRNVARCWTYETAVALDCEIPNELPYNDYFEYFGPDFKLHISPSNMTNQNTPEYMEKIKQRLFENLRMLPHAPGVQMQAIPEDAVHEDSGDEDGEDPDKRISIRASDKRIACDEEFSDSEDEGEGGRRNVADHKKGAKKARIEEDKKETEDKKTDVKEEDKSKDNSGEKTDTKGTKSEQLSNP
Description: Inhibition of human recombinant histone deacetylase 2

T-24 [7] = experiment: Induction of alpha tubulin acetylation in human T24 cells at 1 uM preincubated 16 hrs before whole-cell lysate by Western blot analysis; type: functional, cell-based

SMILES | EC50 (T-24 [1]) [nM] | Ratio IC50 (Homo sapiens [2]) | Ratio EC50 (T-24 [3]) | IC50 [4] [nM] | IC50 (Histone deacetylase 8) [nM] | Ratio IC50 (Homo sapiens [5]) | EC50 (T-24 [6]) [nM] | IC50 (Histone deacetylase 2) [nM] | Selectivity Index (T-24 [3]) | Activity (T-24 [7])
CC(C)(C)OC(=O)NCCCC[C@@H]1C(=O)Nc2ccccc2N1Cc1ccc(C(=O)NO)cc1 | 6750 | 34 | 75 | 40 | 1150 | 27 | 90 | 1480 |  | 
CC(/C=C/C(=O)NO)=C\[C@@H](C)C(=O)c1ccc(N(C)C)cc1 (racemic) [TRICHOSTATIN] | 10 |  |  |  |  |  | 10 |  |  | 
O=C(NO)c1ccc(CN2c3ccccc3NC(=O)[C@@H]2Cc2cccs2)cc1 | 2300 | 5 |  | 310 | 1190 | 4 | 230 | 1480 |  | 
O=C(CCCCCCC(=O)Nc1ccc([C@H]2O[C@@H](CSc3nc(-c4ccccc4)c(-c4ccccc4)o3)C[C@@H](c3ccc(CO)cc3)O2)cc1)NO [TUBACIN] |  |  |  |  |  |  |  |  | 75 | 
O=C(NO)c1ccc(CN2c3ccccc3NC(=O)[C@H]2Cc2ccccc2)cc1 | 520 | 26 |  | 10 | 530 | 53 | 40 | 260 | >13 | 
O=C(NO)c1ccc(CN2c3ccccc3NC(=O)[C@H]2Cc2cccs2)cc1 | 1220 | 21 |  | 40 | 690 | 17 | 70 | 870 | >13 | Active
O=C(NO)c1ccc(CN2C(=O)CNC(=O)[C@H]2Cc2c[nH]c3ccccc23)cc1 | 12100 | 17 |  | 110 | 1210 | 11 | 2870 | 1810 |  | 
O=C(NO)c1ccc(CN2C(=O)CNC(=O)[C@H]2Cc2ccccc2)cc1 | 23000 | 33 |  | 170 | 2340 | 14 | 1490 | 5540 | >13 | 
O=C1CN(Cc2ccc(C(=O)NO)cc2)c2ccccc2N1 | 3580 | 4 |  | 150 | 520 | 3 | 1010 | 560 |  | 
CC(C)(C)Oc1ccc(C[C@@H]2C(=O)Nc3ccccc3N2Cc2ccc(C(=O)NO)cc2)cc1 | 2750 | 28 |  | 50 | 250 | 5 | 80 | 1440 | >13 | 
O=C(NO)c1ccc(CN2c3ccccc3NC(=O)[C@H]2Cc2ccc(F)c(F)c2)cc1 |  | 11 |  | 40 | 420 | 10 |  | 460 |  | 
O=C(NO)c1ccc(CN2C(=O)CNC(=O)[C@H]2Cc2cccs2)cc1 | 9000 | 22 |  | 160 | 440 | 3 | 2000 | 3470 |  | 
O=C(NO)c1ccc(CN2c3ccccc3NC(=O)[C@H]2CCc2ccccc2)cc1 |  | 40 |  | 10 | 640 | 49 |  | 520 |  | 
O=C(NO)c1ccc(CN2c3ccccc3NC(=O)[C@@H]2Cc2ccccc2)cc1 | 1900 | 2 |  | 220 | 210 | 1 | 320 | 460 |  | 
O=C(NO)c1ccc(CN2c3ccccc3NC(=O)[C@H]2Cc2ccc(O)cc2)cc1 |  | 41 |  | 10 | 730 | 91 |  | 330 |  | 
